Test results from patent US9464049B2, “Indole-carboxamides” (Hoffmann-La Roche Inc., priority 2013, dated 2016).

Assays:
[1] = system: human embryonic stem cell derived neural stem cells (NSCs); test: Neural stem cell proliferation assay (neurogenesis assay, ATP levels by CellTiterGlo); type: cell-based; conditions: Homo sapiens, Neural stem cell, 96 h; compound concentration at which 150% activity of control (100%) is reached; NSC proliferation by ATP (CellTiterGlo) after 4 days incubation; dose response 8 μM to 8 nM
Protocol: Neural Stem Cell Proliferation Assay
Neurogenic properties of small molecules are determined based on the proliferation of human embryonic stem cell derived neural stem cells (NSCs) which were derived via a dual smad inhibition as previously described (Chambers, S. M., et al., Highly efficient neural conversion of human ES and iPS cells by dual inhibition of SMAD signaling, Nature biotechnology, 2009. 27(3): p. 275-80.)
Compounds respond is measured by the increase in cells based on ATP levels (Promega:CellTiterGlo®) after an incubation period of 4 days.
NSCs are thawed and expanded over 3 passages. On the 14th day, NSCs are seeded in Polyornithin/Laminin coated 384 well plates at a cell density of 21,000 cells/cm^2 in a media volume of 38 μl.
4 hours after cell seeding, compound solutions are added at a volume of 2 μl. Stock solutions of the compounds (water, 5% DMSO) are diluted to obtain a dose response (11 points, dilution factor is 2), ranging from 8 μM to 8 nM. Controls are run to consistently determine the neurogenic properties of the cells: • Negative (neutral) control is cell culture Media (final DMSO concentration: 0.25%). • Positive controls are: • 1. cell culture Media+100 ng/ml FGF2 (final DMSO concentration: 0.1%) • 2. cell culture Media+20 ng/ml EGF (final DMSO concentration: 0.1%) • 3. cell culture Media+100 ng/ml Wnt3a (final DMSO concentration: 0.1%)
After 4 days incubation at 37° C., 5% CO2, the amount of ATP per well is quantified. The ATP concentration is proportional to the cell number. ATP is quantified by using the Promega CellTiterGlo® kit. The CellTiterGlo® reagents contain a cell lysis buffer, a thermo stable luciferase (UltraGlo™ recombinant luciferase), magnesium and luciferin. Luciferin reacts with ATP producing oxyluciferin, AMP and light. The luminescence signal is proportional to the ATP content.
The value of negative (neutral) control is determined for each assay plate by taking the average of 16 negative control wells. The neurogenic compound response is calculated for each compound as (compound/Negative Control)*100.
The values of EC150 from the dose response curve are determined for each test compound. The EC150 is the compound concentration at which 150% activity of control (100%) is reached.

## Cc1c(C(N)=O)[nH]c2c(-c3ccc(F)c(F)c3)cc(Cl)cc12 [Example 15, 5-Chloro-7-(3,4-difluorophenyl)-3-methyl-1H-indole-2-carboxamide]
[1]
  EC (150% of control): 0.64 µM
other
  melting point: 206 °C

## Cc1c(C(N)=O)[nH]c2c(-c3ccc(C#N)cc3)cc(C#N)cc12 [Example 20, 5-Cyano-7-(4-cyanophenyl)-3-methyl-1H-indole-2-carboxamide]
[1]
  EC (150% of control): 0.24 µM
other
  melting point: 294 °C

## Cc1c(C(N)=O)[nH]c2c(-c3ccc(Cl)cc3)cc(Cl)cc12 [Example 12, 5-Chloro-7-(4-chlorophenyl)-3-methyl-1H-indole-2-carboxamide]
[1]
  EC (150% of control): 0.31 µM
other
  melting point: 252 °C

## Cc1c(C(N)=O)[nH]c2c(-c3ccc(OC(F)(F)F)cc3)cc(Cl)cc12 [Example 24, 5-Chloro-3-methyl-7-[4-(trifluoromethoxy)phenyl]-1H-indole-2-carboxamide]
[1]
  EC (150% of control): 1.32 µM
other
  melting point: 149 °C

## N#Cc1cc(-c2ccc(F)cc2F)c2[nH]c(C(N)=O)cc2c1 [Example 41, 5-Cyano-7-(2,4-difluorophenyl)-1H-indole-2-carboxamide]
[1]
  EC (150% of control): 0.025 µM
other
  melting point: 289.5 °C

## Cc1c(C(N)=O)[nH]c2c(-c3ccc(F)cc3F)cc(F)cc12 [Example 55, 7-(2,4-Difluorophenyl)-5-fluoro-3-methyl-1H-indole-2-carboxamide]
[1]
  EC (150% of control): 0.026 µM
other
  melting point: 200 °C

## Cc1c(C(N)=O)[nH]c2c(-c3ccc(C(F)(F)F)cc3)cc(F)cc12 [Example 48, 5-Fluoro-3-methyl-7-[4-(trifluoromethyl)-phenyl]-1H-indole-2-carboxamide]
[1]
  EC (150% of control): 0.11 µM
other
  melting point: 200 °C

## Cc1c(C(N)=O)n(C)c2c(-c3ccc(F)cc3)cc(F)cc12 [Example 49, 5-Fluoro-7-(4-fluorophenyl)-1,3-dimethylindole-2-carboxamide]
[1]
  EC (150% of control): 0.17 µM
other
  melting point: 202 °C

## Cc1c(C(N)=O)[nH]c2c(-c3ccc(Cl)cc3F)cc(F)cc12 [Example 77, 7-(4-Chloro-2-fluorophenyl)-5-fluoro-3-methyl-1H-indole-2-carboxamide]
[1]
  EC (150% of control): 0.022 µM
other
  melting point: 216 °C

## N#Cc1cc(-c2ccc(F)cc2)c2[nH]c(C(N)=O)cc2c1 [Example 34, 5-Cyano-7-(4-fluorophenyl)-1H-indole-2-carboxamide]
[1]
  EC (150% of control): 0.057 µM
other
  melting point: 234 °C

## Cc1c(C(N)=O)[nH]c2c(-c3ccncc3)cc(F)cc12 [Example 78, 5-Fluoro-3-methyl-7-pyridin-4-yl-1H-indole-2-carboxamide]
[1]
  EC (150% of control): 0.053 µM
other
  melting point: 270 °C

## Cn1c(C(N)=O)cc2cc(C#N)cc(-c3ccc([N+](=O)[O-])cc3)c21 [Example 67, 5-Cyano-1-methyl-7-(4-nitrophenyl)-indole-2-carboxamide]
[1]
  EC (150% of control): 2.05 µM
other
  melting point: 236 °C

## Cc1c(C(N)=O)[nH]c2c(-c3ccc(Cl)cc3)cc(C#N)cc12 [Example 10, 7-(4-Chlorophenyl)-5-cyano-3-methyl-1H-indole-2-carboxamide]
[1]
  EC (150% of control): 0.21 µM
other
  melting point: 291 °C

## Cn1c(C(N)=O)cc2cc(C#N)cc(-c3ccc(Cl)cc3F)c21 [Example 58, 7-(4-Chloro-2-fluorophenyl)-5-cyano-1-methylindole-2-carboxamide]
[1]
  EC (150% of control): 1.67 µM
other
  melting point: 192 °C

## N#Cc1ccc(-c2cc(C#N)cc3cc(C(N)=O)[nH]c23)cc1 [Example 43, 5-Cyano-7-(4-cyanophenyl)-1H-indole-2-carboxamide]
[1]
  EC (150% of control): 0.2 µM
other
  melting point: 299 °C

## Cc1c(C(N)=O)n(C)c2c(-c3ccc(C(F)(F)F)cc3)cc(F)cc12 [Example 51, 5-Fluoro-1,3-dimethyl-7-[4-(trifluoromethyl)-phenyl]-indole-2-carboxamide]
[1]
  EC (150% of control): 0.13 µM
other
  melting point: 222 °C

## Cc1c(C(N)=O)n(C)c2c(-c3ccc(OC(F)(F)F)cc3)cc(Cl)cc12 [Example 27, 5-Chloro-1,3-dimethyl-7-[4-(trifluoromethoxy)-phenyl]indole-2-carboxamide]
[1]
  EC (150% of control): 3.67 µM
other
  melting point: 181 °C

## Cc1c(C(N)=O)[nH]c2c(-c3ccc(OC(F)(F)F)cc3)cc(F)cc12 [Example 54, 5-Fluoro-3-methyl-7-[4-(trifluoromethoxy)phenyl]-1H-indole-2-carboxamide]
[1]
  EC (150% of control): 0.2 µM
other
  melting point: 108 °C

## Cc1c(C(N)=O)[nH]c2c(-c3ccc(C#N)cc3)cc(F)cc12 [Example 53, 7-(4-Cyanophenyl)-5-fluoro-3-methyl-1H-indole-2-carboxamide]
[1]
  EC (150% of control): 0.04 µM
other
  melting point: 230 °C

## N#Cc1cc(-c2ccc(Cl)cc2)c2[nH]c(C(N)=O)cc2c1 [Example 35, 7-(4-Chlorophenyl)-5-cyano-1H-indole-2-carboxamide]
[1]
  EC (150% of control): 0.021 µM
other
  melting point: 267.5 °C

## Cn1c(C(N)=O)cc2cc(C#N)cc(-c3ccc(F)c(F)c3)c21 [Example 40, 5-Cyano-7-(3,4-difluorophenyl)-1-methylindole-2-carboxamide]
[1]
  EC (150% of control): 0.2 µM
other
  melting point: 184.5 °C

## Cc1c(C(N)=O)[nH]c2c(-c3ccc(F)c(F)c3F)cc(F)cc12 [Example 75, 5-Fluoro-3-methyl-7-(2,3,4-trifluorophenyl)-1H-indole-2-carboxamide]
[1]
  EC (150% of control): 0.082 µM
other
  melting point: 209 °C

## Cc1c(C(N)=O)[nH]c2c(-c3ccc(C#N)cc3)cc(Cl)cc12 [Example 23]
[1]
  EC (150% of control): 0.28 µM
other
  melting point: 267 °C

## N#Cc1cc(-c2ccc(Cl)cc2Cl)c2[nH]c(C(N)=O)cc2c1 [Example 42, 5-Cyano-7-(2,4-dichlorophenyl)-1H-indole-2-carboxamide]
[1]
  EC (150% of control): 0.047 µM
other
  melting point: 276.5 °C

## Cc1c(C(N)=O)[nH]c2c(-c3ccc(OC(F)(F)F)cc3)cc(C#N)cc12 [Example 19, 5-Cyano-3-methyl-7-[4-(trifluoromethoxy)-phenyl]-1H-indole-2-carboxamide]
[1]
  EC (150% of control): 1.13 µM
other
  melting point: 207 °C

## Cn1c(C(N)=O)cc2cc(C#N)cc(-c3ccc(OC(F)(F)F)cc3)c21 [Example 73, 5-Cyano-1-methyl-7-[4-(trifluoromethoxy)phenyl]indole-2-carboxamide]
[1]
  EC (150% of control): 7.5 µM
other
  melting point: 176 °C

## Cc1c(C(N)=O)[nH]c2c(-c3ccc(F)cc3)cc(Cl)cc12 [Example 11, 5-Chloro-7-(4-fluorophenyl)-3-methyl-1H-indole-2-carboxamide]
[1]
  EC (150% of control): 0.22 µM
other
  melting point: 173 °C

## Cc1c(C(N)=O)n(C)c2c(-c3ccc(F)cc3F)cc(F)cc12 [Example 64, 7-(2,4-Difluorophenyl)-5-fluoro-1,3-dimethylindole-2-carboxamide]
[1]
  EC (150% of control): 0.091 µM
other
  melting point: 192 °C

## Cc1c(C(N)=O)n(C)c2c(-c3ccc(C#N)cc3)cc(C#N)cc12 [Example 22, 5-Cyano-7-(4-cyanophenyl)-1,3-dimethylindole-2-carboxamide]
[1]
  EC (150% of control): 0.6 µM
other
  melting point: 226 °C

## COc1ccc(-c2cc(C#N)cc3cc(C(N)=O)[nH]c23)cc1 [Example 72, 5-Cyano-7-(4-methoxyphenyl)-1H-indole-2-carboxamide]
[1]
  EC (150% of control): 0.19 µM
other
  melting point: 255 °C

## Cc1c(C(N)=O)[nH]c2c(-c3ccc(C(F)(F)F)cc3)cc(Cl)cc12 [Example 16, 5-Chloro-3-methyl-7-[4-(trifluoromethyl)-phenyl]-1H-indole-2-carboxamide]
[1]
  EC (150% of control): 0.75 µM
other
  melting point: 184 °C

## Cn1c(C(N)=O)cc2cc(F)cc(-c3ccc(F)cc3)c21 [Example 2, 5-Fluoro-7-(4-fluoro-phenyl)-1-methylindole-2-carboxamide]
[1]
  EC (150% of control): 1.4 µM
other
  melting point: 156 °C

## Cc1c(C(N)=O)n(C)c2c(-c3ccc(C#N)cc3)cc(F)cc12 [Example 59, 7-(4-Cyanophenyl)-5-fluoro-1,3-dimethylindole-2-carboxamide]
[1]
  EC (150% of control): 0.083 µM
other
  melting point: 245 °C

## Cc1c(C(N)=O)n(C)c2c(-c3ccc(F)cc3)cc(C#N)cc12 [Example 4, 5-Cyano-7-(4-fluorophenyl)-1,3-dimethylindole-2-carboxamide]
[1]
  EC (150% of control): 0.21 µM
other
  melting point: 216 °C

## N#Cc1cc(-c2ccnc(Cl)c2)c2[nH]c(C(N)=O)cc2c1 [Example 70, 7-(2-Chloropyridin-4-yl)-5-cyano-1H-indole-2-carboxamide]
[1]
  EC (150% of control): 0.14 µM
other
  melting point: 297 °C
